According to article PMC4923583, “A Phase I/II Clinical Trial of Belinostat (PXD101) in Combination with Doxorubicin in Patients with Soft Tissue Sarcomas” (Sarcoma, 2016):
“And” between values parts separate entries of the source, which are not always exact repeats. Equal values may be shown once.

Legend:
[1] = tested on: patients with STS and other solid tumours; assay: Dose escalation: maximum tolerated dose (MTD) and dose limiting toxicities (DLT); assay type: in vivo; conditions: highest tested dose level (cohort 4)
Description: Belinostat was administered as a 30-minute intravenous infusion every 24 hours on days 1–5 and on day 5 in combination with doxorubicin, in a 3-week schedule, and doxorubicin was given after belinostat. The dose escalation schedule was as follows: belinostat 600 mg/m^2 and 50 mg/m^2 doxorubicin (cohort 1), 600 mg/m^2 and 75 mg/m^2 doxorubicin (cohort 2), 800 mg/m^2 and 75 mg/m^2 doxorubicin (cohort 3), and 1000 mg/m^2 and 75 mg/m^2 doxorubicin (cohort 4).
Patients who achieved clinical benefit from the treatment (objective response or stable disease) could continue belinostat treatment beyond cycle 6. If the maximum cumulative dose of doxorubicin 450 mg/m^2 was reached, the treatment would continue with belinostat as monotherapy. In the phase I part, at least 3 patients were treated at each dose level. If a DLT was found in one of 3 patients, the cohort was expanded to a total of 6 patients.
Adverse events were graded using the NCI common terminology criteria for adverse events (NCI-CTCAE) version 3.0. […]

[2] = Pharmacokinetic analyses, plasma, cycle 1 day 4 and day 5
Description: (§1) The following PK parameters were determined: elimination half-life (t 1/2), maximum concentration (C max), time to maximum concentration (t max), area under the curve (AUC0−tlast and AUC∞), elimination rate constant (λz), and volume of distribution (V c and V ss). Blood sampling for belinostat alone was performed on cycle 1 day 4 (before treatment and 0 min, 5 min, 15 min, 30 min, 1 h, 2 h, 2 h 15 min, 2 h 30 min, 3 h, 4 h, 6 h, 8 h, and 24 h after treatment).

[3] = tested on: human tumour xenografts; conditions: cited from earlier work
[4] = tested on: solid tumours and haematological neoplasms; set-up: method as in PMID 18245542, PMID 18510700; conditions: ref [10], [11], cited from earlier work
[5] = in vivo
Description: as §1

[6] = tested on: soft tissue sarcoma; conditions: single-agent doxorubicin, ref [6], cited from earlier work

SMILES: O=C(/C=C/c1cccc(S(=O)(=O)Nc2ccccc2)c1)NO [belinostat]
- MTD of belinostat in combination with doxorubicin ([1]; 30-minute IV infusion days 1–5, 3-week schedule, doxorubicin on day 5): 1000 mg/m^2/d
- clearance ([2]; 600 mg/m^2 Bel + 50 mg/m^2 doxorubicin, Day 5 (with doxorubicin), N: 1, individual parameter presented): 1770 mL/min
- t last ([2]; Median (min–max), 600 mg/m^2 Bel + 50 mg/m^2 doxorubicin, Day 4 (Bel alone), N = 3): 24.5 (22.4–24.6) h
- t last ([2]; Median (min–max), 600 mg/m^2 Bel + 50 mg/m^2 doxorubicin, Day 5 (with doxorubicin), N = 3): 17.0 (17.0–20.1) h
- t last ([2]; Median (min–max), 600 mg/m^2 Bel + 75 mg/m^2 doxorubicin, Day 4 (Bel alone), N = 7): 24.0 (8.55–24.5) h
- t last ([2]; Median (min–max), 600 mg/m^2 Bel + 75 mg/m^2 doxorubicin, Day 5 (with doxorubicin), N = 6): 24.5 (16.2–24.7) h
- t last ([2]; Median (min–max), 800 mg/m^2 Bel + 75 mg/m^2 doxorubicin, Day 4 (Bel alone), N = 8): 23.7 (8.47–24.6) h
- t last ([2]; Median (min–max), 800 mg/m^2 Bel + 75 mg/m^2 doxorubicin, Day 5 (with doxorubicin), N = 6): 15.1 (8.50–24.6) h
- t last ([2]; Median (min–max), 1000 mg/m^2 Bel + 75 mg/m^2 doxorubicin, Day 4 (Bel alone), N = 21): 8.65 (1.05–24.0) h
- t last ([2]; Median (min–max), 1000 mg/m^2 Bel + 75 mg/m^2 doxorubicin, Day 5 (with doxorubicin), N = 19): 8.72 (8.50–24.7) h
- Dose proportionality of pharmacokinetics ([2]; belinostat 600–1000 mg/m^2): dose-proportional pharmacokinetics
- Effect of coadministration of doxorubicin on belinostat exposure ([2]; day 5 vs day 4): no evidence that coadministration of doxorubicin had any effect
- AUC(0-t) ([2]; human, plasma, intravenous, 600 mg/m^2, AUC0–tlast, 600 mg/m^2 Bel + 50 mg/m^2 doxorubicin, Day 4 (Bel alone), N = 3): 10900 ng·h/mL
- AUC(0-t) ([2]; human, plasma, intravenous, 600 mg/m^2, AUC0–tlast, 600 mg/m^2 Bel + 75 mg/m^2 doxorubicin, Day 4 (Bel alone), N = 7): 9670 ng·h/mL
- Cmax ([2]; human, plasma, intravenous, 600 mg/m^2, C max, 600 mg/m^2 Bel + 50 mg/m^2 doxorubicin, Day 4 (Bel alone), N = 3): 21100 ng/mL
- Cmax ([2]; human, plasma, intravenous, 600 mg/m^2, C max, 600 mg/m^2 Bel + 75 mg/m^2 doxorubicin, Day 4 (Bel alone), N = 7): 16800 ng/mL
- clearance ([2]; human, plasma, intravenous, 600 mg/m^2, CL, 600 mg/m^2 Bel + 75 mg/m^2 doxorubicin, Day 4 (Bel alone), N: 3): 2150 mL/min
- Vd ([2]; human, plasma, intravenous, 600 mg/m^2, V ss, 600 mg/m^2 Bel + 75 mg/m^2 doxorubicin, Day 4 (Bel alone), N: 3): 149 L
- half-life ([2]; human, plasma, intravenous, 600 mg/m^2, t 1/2, 600 mg/m^2 Bel + 75 mg/m^2 doxorubicin, Day 4 (Bel alone), N: 3): 3.77 h
- Tmax ([2]; human, plasma, intravenous, 600 mg/m^2, t max, Median (min–max), 600 mg/m^2 Bel + 50 mg/m^2 doxorubicin, Day 4 (Bel alone), N = 3): 0.533 h
- Tmax ([2]; human, plasma, intravenous, 600 mg/m^2, t max, Median (min–max), 600 mg/m^2 Bel + 75 mg/m^2 doxorubicin, Day 4 (Bel alone), N = 7): 0.567 h
- AUC(0-t) ([2]; human, plasma, intravenous, 800 mg/m^2, AUC0–tlast, 800 mg/m^2 Bel + 75 mg/m^2 doxorubicin, Day 4 (Bel alone), N = 8): 12200 ng·h/mL
- Cmax ([2]; human, plasma, intravenous, 800 mg/m^2, C max, 800 mg/m^2 Bel + 75 mg/m^2 doxorubicin, Day 4 (Bel alone), N = 8): 21400 ng/mL
- clearance ([2]; human, plasma, intravenous, 800 mg/m^2, CL, 800 mg/m^2 Bel + 75 mg/m^2 doxorubicin, Day 4 (Bel alone), N: 4): 2120 mL/min
- Vd ([2]; human, plasma, intravenous, 800 mg/m^2, V ss, 800 mg/m^2 Bel + 75 mg/m^2 doxorubicin, Day 4 (Bel alone), N: 4): 107 L
- half-life ([2]; human, plasma, intravenous, 800 mg/m^2, t 1/2, 800 mg/m^2 Bel + 75 mg/m^2 doxorubicin, Day 4 (Bel alone), N: 4): 1.91 h
- Tmax ([2]; human, plasma, intravenous, 800 mg/m^2, t max, Median (min–max), 800 mg/m^2 Bel + 75 mg/m^2 doxorubicin, Day 4 (Bel alone), N = 8): 0.533 h
- half-life ([2]; human, plasma, intravenous, 1000 mg/m2, Geometric mean apparent elimination half-life (t 1/2), belinostat 600, 800 and 1000 mg/m^2, day 4 and day 5, range across groups): 1.9 to 4.8 h
- AUC(0-t) ([2]; human, plasma, intravenous, 1000 mg/m^2, AUC0–tlast, 1000 mg/m^2 Bel + 75 mg/m^2 doxorubicin, Day 4 (Bel alone), N = 21): 23100 ng·h/mL
- Cmax ([2]; human, plasma, intravenous, 1000 mg/m^2, C max, 1000 mg/m^2 Bel + 75 mg/m^2 doxorubicin, Day 4 (Bel alone), N = 21): 41100 ng/mL
- clearance ([2]; human, plasma, intravenous, 1000 mg/m^2, CL, 1000 mg/m^2 Bel + 75 mg/m^2 doxorubicin, Day 4 (Bel alone), N: 18): 1360 mL/min
- Vd ([2]; human, plasma, intravenous, 1000 mg/m^2, V ss, 1000 mg/m^2 Bel + 75 mg/m^2 doxorubicin, Day 4 (Bel alone), N: 18): 51 L
- half-life ([2]; human, plasma, intravenous, 1000 mg/m^2, t 1/2, 1000 mg/m^2 Bel + 75 mg/m^2 doxorubicin, Day 4 (Bel alone), N: 18): 1.48 h
- Tmax ([2]; human, plasma, intravenous, 1000 mg/m^2, t max, Median (min–max), 1000 mg/m^2 Bel + 75 mg/m^2 doxorubicin, Day 4 (Bel alone), N = 21): 0.617 h
- AUC(0-t) ([2]; human, plasma, intravenous, AUC0–tlast, 600 mg/m^2 Bel + 50 mg/m^2 doxorubicin, Day 5 (with doxorubicin), N = 3): 10400 ng·h/mL
- AUC(0-t) ([2]; human, plasma, intravenous, AUC0–tlast, 600 mg/m^2 Bel + 75 mg/m^2 doxorubicin, Day 5 (with doxorubicin), N = 6): 10400 ng·h/mL
- AUC(0-t) ([2]; human, plasma, intravenous, AUC0–tlast, 800 mg/m^2 Bel + 75 mg/m^2 doxorubicin, Day 5 (with doxorubicin), N = 6): 14600 ng·h/mL
- AUC(0-t) ([2]; human, plasma, intravenous, AUC0–tlast, 1000 mg/m^2 Bel + 75 mg/m^2 doxorubicin, Day 5 (with doxorubicin), N = 19): 22100 ng·h/mL
- Cmax ([2]; human, plasma, intravenous, C max, 600 mg/m^2 Bel + 50 mg/m^2 doxorubicin, Day 5 (with doxorubicin), N = 3): 18300 ng/mL
- Cmax ([2]; human, plasma, intravenous, C max, 600 mg/m^2 Bel + 75 mg/m^2 doxorubicin, Day 5 (with doxorubicin), N = 6): 17400 ng/mL
- Cmax ([2]; human, plasma, intravenous, C max, 800 mg/m^2 Bel + 75 mg/m^2 doxorubicin, Day 5 (with doxorubicin), N = 6): 26400 ng/mL
- Cmax ([2]; human, plasma, intravenous, C max, 1000 mg/m^2 Bel + 75 mg/m^2 doxorubicin, Day 5 (with doxorubicin), N = 19): 37000 ng/mL
- clearance ([2]; human, plasma, intravenous, CL, 600 mg/m^2 Bel + 75 mg/m^2 doxorubicin, Day 5 (with doxorubicin), N: 3): 1850 mL/min
- clearance ([2]; human, plasma, intravenous, CL, 800 mg/m^2 Bel + 75 mg/m^2 doxorubicin, Day 5 (with doxorubicin), N: 4): 1520 mL/min
- clearance ([2]; human, plasma, intravenous, CL, 1000 mg/m^2 Bel + 75 mg/m^2 doxorubicin, Day 5 (with doxorubicin), N = 19): 1420 mL/min
- Vd ([2]; human, plasma, intravenous, V ss, 600 mg/m^2 Bel + 50 mg/m^2 doxorubicin, Day 5 (with doxorubicin), N: 1, individual parameter presented): 72.8 L
- Vd ([2]; human, plasma, intravenous, V ss, 600 mg/m^2 Bel + 75 mg/m^2 doxorubicin, Day 5 (with doxorubicin), N: 3): 90.8 L
- Vd ([2]; human, plasma, intravenous, V ss, 800 mg/m^2 Bel + 75 mg/m^2 doxorubicin, Day 5 (with doxorubicin), N: 4): 58.3 L
- Vd ([2]; human, plasma, intravenous, V ss, 1000 mg/m^2 Bel + 75 mg/m^2 doxorubicin, Day 5 (with doxorubicin), N = 19): 57.6 L
- half-life ([2]; human, plasma, intravenous, t 1/2, 600 mg/m^2 Bel + 50 mg/m^2 doxorubicin, Day 5 (with doxorubicin), N: 1, individual parameter presented): 2.53 h
- half-life ([2]; human, plasma, intravenous, t 1/2, 600 mg/m^2 Bel + 75 mg/m^2 doxorubicin, Day 5 (with doxorubicin), N: 3): 4.83 h
- half-life ([2]; human, plasma, intravenous, t 1/2, 800 mg/m^2 Bel + 75 mg/m^2 doxorubicin, Day 5 (with doxorubicin), N: 4): 2.14 h
- half-life ([2]; human, plasma, intravenous, t 1/2, 1000 mg/m^2 Bel + 75 mg/m^2 doxorubicin, Day 5 (with doxorubicin), N = 19): 2.13 h
- Tmax ([2]; human, plasma, intravenous, t max, Median (min–max), 600 mg/m^2 Bel + 50 mg/m^2 doxorubicin, Day 5 (with doxorubicin), N = 3): 0.567 h
- Tmax ([2]; human, plasma, intravenous, t max, Median (min–max), 600 mg/m^2 Bel + 75 mg/m^2 doxorubicin, Day 5 (with doxorubicin), N = 6): 0.517 h
- Tmax ([2]; human, plasma, intravenous, t max, Median (min–max), 800 mg/m^2 Bel + 75 mg/m^2 doxorubicin, Day 5 (with doxorubicin), N = 6): 0.533 h
- Tmax ([2]; human, plasma, intravenous, t max, Median (min–max), 1000 mg/m^2 Bel + 75 mg/m^2 doxorubicin, Day 5 (with doxorubicin), N = 19): 0.633 h
- Toxicity to the host mice ([3]; mouse, in vivo): without apparent toxicity
- Growth of human tumour xenografts ([3]; ref [9]): inhibits growth
- Maximum tolerated dose (MTD), monotherapy ([4]; 5 consecutive days repeated in a 3-week schedule): 1000 mg/m^2/d
- Duration of prolonged stable disease (SD) in 2 STS patients ([4]; belinostat monotherapy, one value per patient): 7 months and 14 months

SMILES: COc1cccc2c1C(=O)c1c(O)c3c(c(O)c1C2=O)C[C@@](O)(C(=O)CO)C[C@@H]3O[C@H]1C[C@H](N)[C@H](O)[C@H](C)O1 [doxorubicin]
- MTD of doxorubicin in combination with belinostat ([1]; day 5, 3-week schedule): 75 mg/m^2
- half-life ([2]; human, plasma, intravenous): 7.6 to 10.8 h
- Tmax ([2]; human, plasma, intravenous, 75 mg/m2, Median t max, doxorubicin 50 or 75 mg/m^2, day 5, range across groups): 0.24 to 0.5 h
- Effect of coadministration of belinostat on doxorubicin exposure [5]: no effect
- Neutropenia (all grades) ([6]; G-CSF allowed): 37%
- Response rate [6]: 14%
